In one test the test system is A549. Briefly: Cytotoxicity against human A549 cells assessed as reduction in cell viability after 72 hrs by MTT assay. Type of test: functional, cell-based. Particulars: A549, 72 h. On the technique in general: Tetrazolium dyes change colour on reduction, which living cells bring about.
In another test the test system is NCI-H1975. Briefly: Cytotoxicity against human NCI-H1975 cells assessed as reduction in cell viability after 72 hrs by MTT assay. In kind it is functional, cell-based. Particulars: NCI-H1975, 72 h.
The subject of another test is MKN-45. Briefly: Cytotoxicity against human MKN45 cells assessed as reduction in cell viability after 72 hrs by MTT assay. Type of test: functional, cell-based. The following applies: MKN-45, 72 h.
Test [1] in a line: Cytotoxicity against human SGC cells assessed as reduction in cell viability after 72 hrs by MTT assay. In kind it is functional, cell-based.
Test [2] can be described thus: Antifibrotic activity against Wistar rat cardiac fibroblasts assessed as inhibition of cell proliferation at 20 uM after 12 hrs by MTT assay relative to control. Type of test: functional.
A further test concerns RAW264.7. Briefly: Anti-inflammatory activity in mouse RAW264.7 cells assessed as inhibition of LPS-induced NO production by measuring NO level at 10 ug/ml preincubated for 1 hr followed by LPS-stimulation measured after 24 hrs by Griess assay. Type of test: functional.

Each structure is given as a SMILES string. A value given as a limit tells only on which side of the number the result lay.

In general, IC50 refers to the concentration at which inhibition is half-maximal. Turning to `N#Cc1ccc(/C=N/NC(=O)N2CCc3ncnc(Nc4ccc(F)c(Cl)c4)c3C2)cc1`, the IC50 in the test on A549 is 42.6 µM; in the test on NCI-H1975, 67.5 µM; in the test on MKN-45 it was 52.3 µM; in test [1], 35.8 µM.
For `O=C(N/N=C/c1ccc(F)cc1)N1CCc2ncnc(Nc3ccc(F)c(Cl)c3)c2C1` the same measures were 11.4 µM, 64.5 µM, 10.8 µM and 16.9 µM.
Consider `O=C(N/N=C/c1cccc([N+](=O)[O-])c1)N1CCc2ncnc(Nc3ccc(F)c(Cl)c3)c2C1`, for which the IC50 is 43.1 µM in the test with A549, 86.9 µM with NCI-H1975, greater than 200 µM in the test on MKN-45 and 34.8 µM in test [1].
Usually inhibition stands for the percentage by which the read-out fell short of the control. For `O=C(N/N=C/c1ccc(Br)cc1)N1CCc2ncnc(Nc3cccc(C(F)(F)F)c3)c2C1`, the IC50 with A549 was determined as 11.5 µM; in the test on NCI-H1975 it was 61.4 µM; with MKN-45, 11.4 µM; in test [1], 16.8 µM. Also, the inhibition at 20 µM in test [2] was 65 to 83%.
With `CSc1ccc(/C=N/NC(=O)N2CCc3ncnc(Nc4ccc(F)c(Cl)c4)c3C2)cc1`, the inhibition at 20 µM in test [2] was 65 to 83%. The Activity in the test with RAW264.7 was less than 1.9 µM.
Take `O=C(N/N=C/c1ccc(C(F)(F)F)cc1)N1CCc2ncnc(Nc3cccc(C(F)(F)F)c3)c2C1`: the inhibition at 20 µM in test [2] fell in the range of 65 to 83%.
With `O=C(N/N=C/c1ccccc1)N1CCc2ncnc(Nc3cccc(Br)c3)c2C1`, the IC50 in the test on A549 is 22.7 µM; in the test with NCI-H1975 it was 37.8 µM; with MKN-45, 22.4 µM; in test [1] it was 16.4 µM. Also, the Activity in the test with RAW264.7 was less than 1.9 µM.
As for `O=C(N/N=C/c1ccc(F)cc1)N1CCc2ncnc(Nc3cccc(C(F)(F)F)c3)c2C1`, the IC50 was determined as 6.37 µM with A549, 55.6 µM with NCI-H1975, 4 µM in the test on MKN-45 and 4.23 µM in test [1].
As to `O=C(N/N=C/c1ccccc1)N1CCc2ncnc(Nc3ccc(F)c(Cl)c3)c2C1`, the IC50 with A549 was determined as 31.5 µM; with NCI-H1975, 28.8 µM; in the test with MKN-45, 22.9 µM; in test [1], 7.47 µM.
As to `O=C(N/N=C/c1cccs1)N1CCc2ncnc(Nc3cccc(Br)c3)c2C1`, the IC50 was 50.2 µM in the test with A549, 122 µM with NCI-H1975, greater than 200 µM in the test with MKN-45 and greater than 200 µM in test [1]. The inhibition at 20 µM in test [2] was 65 to 83%. Further, the Activity in the test on RAW264.7 was less than 1.9 µM.
As for `Cc1ccc(/C=N/NC(=O)N2CCc3ncnc(Nc4ccc(F)c(Cl)c4)c3C2)cc1C`, the IC50 turned out to be 15.6 µM in the test on A549, 6.83 µM in the test with NCI-H1975, 18.1 µM in the test with MKN-45 and 11.5 µM in test [1].
In the case of `O=C(N/N=C/c1ccco1)N1CCc2ncnc(Nc3cccc(Br)c3)c2C1`, the IC50 is 47.1 µM with A549, greater than 200 µM with NCI-H1975, 65.7 µM in the test with MKN-45 and greater than 200 µM in test [1].
As to `O=C(N/N=C/c1cccs1)N1CCc2ncnc(Nc3cccc(C(F)(F)F)c3)c2C1`, the IC50 is 42.4 µM in the test on A549, 169 µM with NCI-H1975, 36.4 µM with MKN-45 and 24.6 µM in test [1]. For the same compound, in test [2], the inhibition at 20 µM lay within 65 to 83%. Besides, the Activity with RAW264.7 was less than 1.9 µM.
For the compound `O=C(N/N=C/c1ccc(Br)cc1)N1CCc2ncnc(Nc3ccc(F)c(Cl)c3)c2C1`, the IC50 with A549 was 14.1 µM; with NCI-H1975 it was greater than 200 µM; in the test with MKN-45 it was 12.1 µM; in test [1], 13.5 µM. Further, the inhibition at 20 µM in test [2] was 65 to 83%.
For the compound `O=C(N/N=C/c1cccnc1)N1CCc2ncnc(Nc3cccc(Br)c3)c2C1`, the IC50 is 72.1 µM in the test with A549, greater than 200 µM in the test with NCI-H1975, greater than 200 µM with MKN-45 and greater than 200 µM in test [1].

The record behind these values is ChEMBL document CHEMBL4219106, “Discovery and optimization of tetrahydropyrido[4,3-d]pyrimidine derivatives as novel ATX and EGFR dual inhibitors” (Bioorg Med Chem, 2018).
